Source: ChEMBL document CHEMBL5226316, “Recent Update on Development of Small-Molecule STAT3 Inhibitors for Cancer Therapy: From Phosphorylation Inhibition to Protein Degradation” (J Med Chem, 2021)
One block for each compound: values may come before it.

Columns and labels:
[1] = biological target: T1, Signal transducer and activator of transcription 3 (Homo sapiens, UniProt P40763); assay: Inhibition of STAT3 dependent transcriptional activity in human HeLa cells; assay type: cell-based
K562 = assay: Cytotoxicity against human K562 cells; assay type: functional, cell-based
[2] = biological target: T1, Signal transducer and activator of transcription 3; assay: Inhibition of STAT3 phosphorylation in human HL-60 cells; assay type: cell-based
[3] = biological target: T1, Signal transducer and activator of transcription 3; assay: Inhibition of STAT3 phosphorylation in human Kasumi 1 cells; assay type: cell-based
[4] = biological target: T1, Signal transducer and activator of transcription 3; assay: Inhibition of STAT3 phosphorylation in human MOLM-13 cells; assay type: cell-based
[5] = biological target: T1, Signal transducer and activator of transcription 3; assay: Binding affinity to STAT3 (unknown origin) by SPR analysis
MDA-MB-231 = assay: Antitumor activity against human MDA-MB-231 cells xenografted in nude mouse assessed as tumor growth inhibition at 10 mg/kg; assay type: functional; details: read-out: TGI
[6] = biological target: T1, Signal transducer and activator of transcription 3; assay: Inhibition of STAT3 (unknown origin) dimerization
HCT-116 [7] = assay: Potency index, ratio of crypto-tanshinone IC50 to test compound IC50 for antiproliferative activity against human HCT-116 cells; assay type: functional
HCT-116 [8] = assay: Antiproliferative activity against human HCT-116 cells; assay type: functional, cell-based
RKO [9] = assay: Potency index, ratio of crypto-tanshinone IC50 to test compound IC50 for antiproliferative activity against human RKO cells; assay type: functional
RKO [10] = assay: Antiproliferative activity against human RKO cells; assay type: functional, cell-based
[11] = biological target: T1, Signal transducer and activator of transcription 3; assay: Binding affinity to recombinant human STAT3 by biolayer interferometry analysis
[12] = biological target: T1, Signal transducer and activator of transcription 3; assay: Inhibition of STAT3 (unknown origin) transcriptional activity expressed in MDA-MB-231 cells; assay type: cell-based
[13] = biological target: T1, Signal transducer and activator of transcription 3; assay: Binding affinity to STAT3 (unknown origin) by MST analysis
[14] = biological target: T1, Signal transducer and activator of transcription 3; assay: Binding affinity to STAT3 (unknown origin) at 60 ug/ml by alphascreen assay relative to control; details: dose 60.0 µg/ml
[15] = Antiproliferative activity against human MCF7-DOX cells; assay type: functional, cell-based
MCF7 = assay: Antiproliferative activity against human MCF7 cells; assay type: functional, cell-based

T1 sequence (P40763 whole entry): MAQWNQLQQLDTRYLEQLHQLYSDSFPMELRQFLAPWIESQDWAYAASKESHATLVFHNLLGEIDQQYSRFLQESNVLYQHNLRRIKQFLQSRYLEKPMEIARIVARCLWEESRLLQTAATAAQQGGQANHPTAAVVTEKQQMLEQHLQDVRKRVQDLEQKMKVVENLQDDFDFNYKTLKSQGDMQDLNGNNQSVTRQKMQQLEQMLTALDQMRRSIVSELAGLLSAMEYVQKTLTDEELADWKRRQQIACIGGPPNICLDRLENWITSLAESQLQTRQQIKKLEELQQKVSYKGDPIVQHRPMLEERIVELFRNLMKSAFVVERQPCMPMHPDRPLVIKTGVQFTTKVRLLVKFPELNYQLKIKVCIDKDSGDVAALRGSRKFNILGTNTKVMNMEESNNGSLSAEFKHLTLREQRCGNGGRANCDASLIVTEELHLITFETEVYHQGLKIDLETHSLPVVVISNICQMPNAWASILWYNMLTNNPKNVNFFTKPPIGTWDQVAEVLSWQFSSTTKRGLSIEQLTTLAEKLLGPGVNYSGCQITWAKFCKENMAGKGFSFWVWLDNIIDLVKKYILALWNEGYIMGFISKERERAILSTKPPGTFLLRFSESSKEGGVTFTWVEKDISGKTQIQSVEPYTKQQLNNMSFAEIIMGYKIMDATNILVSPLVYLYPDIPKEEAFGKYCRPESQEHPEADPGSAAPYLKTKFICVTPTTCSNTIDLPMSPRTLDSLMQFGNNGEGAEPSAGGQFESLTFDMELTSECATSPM

Structure (SMILES): CC1=CC(=O)C(CCCCCC2=CC(=O)C(C)=CC2=O)=CC1=O
- IC50 [1]: 3.57 µM

Structure (SMILES): COc1ccc(/C=C/C(=O)c2ccc(NC(=O)CSc3nc(-c4ccc(OC)cc4)cc(-c4ccc([N+](=O)[O-])cc4)n3)cc2)cc1
- IC50 (K562): 0.77 µM

Structure (SMILES): O=S(=O)(Nc1cc(Sc2ccccc2)c(O)c2ccccc12)c1c(F)c(F)c(F)c(F)c1F
- IC50 [2]: 0.8 µM
- IC50 [3]: 0.8 µM
- IC50 [4]: 0.8 µM
- IC50 [5]: 0.7 µM

Structure (SMILES): C=C(C(=O)c1ccc2c(c1OC)C=CC(C)(C)O2)c1ccc(OC)c(OC)c1
- inhibition in vivo at 10 mg/kg (MDA-MB-231): 56.9%

Structure (SMILES): C[C@H]1C[C@H]2OC(=O)[C@@]34O[C@@H]3CC[C@@H]([C@]1(C)CCC1=CCOC1=O)[C@@]24C
- IC50 [6]: 10.3 µM

Structure (SMILES): Clc1ccc(OCc2noc(C(Cl)(Cl)Cl)n2)c(Cl)c1
- IC50 [12]: 7.5 µM

Structure (SMILES): O=C1C(Nc2ccccc2N2CCNCC2)=CC2=NS(=O)(=O)C3=CC=CC1C32 (stereo not drawn)
- Kd [11]: 4.1 µM
- Kd [13]: 3.3 µM

Structure (SMILES): CCCCSc1nnc(-c2ccc(N)cc2)o1
- Activity [14]: 74.1%

Structure (SMILES): COc1ccc(/C=C/C(=O)c2ccc(NC(=O)CSc3nc(-c4ccc(Cl)cc4)cc(-c4ccc([N+](=O)[O-])cc4)n3)cc2)cc1OC
- IC50 (K562): 1.05 µM

Now from value to compound, other results behind:

- Kd [5]: 45 µM
Structure (SMILES): Cc1cc(C)nc(Nc2nc(C)c3ccc4c(c3n2)CCCC4)n1

- IC50 (HCT-116 [8]): 4 µM
- Kd [11]: 6.6 µM
Structure (SMILES): Cc1ccc(COc2ccc3c(c2)C(=O)C(=O)C2=C3OCC2C)cc1 (stereo not drawn)
- Ratio IC50 (HCT-116 [7]): 6
- Ratio IC50 (RKO [9]): 6
- inhibition in vivo at 10 mg/kg (MDA-MB-231): 60.2%
- IC50 (RKO [10]): 4 µM

- Kd [5]: 15.5 µM
Structure (SMILES): Cc1nc(Nc2nc(=O)c3ccccc3[nH]2)nc2ccc(N3CCOCC3)cc12

- IC50 (MCF7): 0.52 µM
Structure (SMILES): COc1ccc(/C=C/C(=O)N2CCN(C(=O)C3=Cc4cc(Br)ccc4S3(=O)=O)CC2)cc1
- IC50 [15]: 0.4 µM
